Data: patent US5478933A, “Benzodiazepine derivatives and their use as antagonists of cholecystokinin and/or gastrin receptors” (Merck Sharpe & Dohme Ltd., priority 1994, dated 1995)

Experiments:
CCK receptor (brain) = target: T1, CCK receptor (brain) (Cavia porcellus, UniProt H0VZC5); assay: CCK Receptor Binding (Brain), inhibition of 125I-CCK-8 binding; design: species or system guinea pig (male Hartley); conditions: guinea pig cortex membranes; 50 pM 125I-CCK-8; pH 6.5, 25° C., 2 hours
T1 construct: the cortex was removed and homogenized in 25 mL ice-cold 0.32M sucrose; from tissue; host or cells: cortex of male Hartley guinea pigs, P2 membrane pellet
T1 sequence (H0VZC5 entry or part of it): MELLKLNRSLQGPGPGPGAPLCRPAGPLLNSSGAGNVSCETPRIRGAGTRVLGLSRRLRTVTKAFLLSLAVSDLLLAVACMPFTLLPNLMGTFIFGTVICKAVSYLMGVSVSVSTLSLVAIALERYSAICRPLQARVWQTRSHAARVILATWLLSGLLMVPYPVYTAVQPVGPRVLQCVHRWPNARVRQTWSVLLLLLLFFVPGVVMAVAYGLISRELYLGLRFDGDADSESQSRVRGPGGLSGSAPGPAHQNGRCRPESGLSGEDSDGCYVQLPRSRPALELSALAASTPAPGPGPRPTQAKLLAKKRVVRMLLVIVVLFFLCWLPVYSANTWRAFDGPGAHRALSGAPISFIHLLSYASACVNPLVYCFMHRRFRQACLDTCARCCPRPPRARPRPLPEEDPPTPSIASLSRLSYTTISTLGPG
Experimental: CCK-8 sulphated was radiolabelled and the binding was performed according to the description for the pancreas method with minor modifications.
Male Hartley guinea pigs (300-500 g) were sacrificed by decapitation and the cortex was removed and homogenized in 25 mL ice-cold 0.32M sucrose. The homogenates were centrifuged at 1000 g for 10 minutes and the resulting supernatant was recentrifuged at 20,000 g for 20 minutes. The P2 pellet was resuspended in binding assay buffer (20 mM HEPES, 5 mM MgCl2, 0.25 mg/ml bacitracin, 1 mM EGTA pH 6.5 at 25° C.), using a Teflon (trademark) homogenizer (5 strokes at 500 rpm) to give a final concentration of 10 mg original wet weight/1.2 ml buffer. For the binding assay, 50 μl of buffer (for total binding) or unlabelled CCK-8 sulphated to give a final concentration of 1 μM (for nonspecific binding) or the compounds of Formula I (for determination of inhibition of ^125 I-CCK-8 binding) and 50 μl of 500 pM ^125 I-CCK-8 (i.e. final concentration of 50 pM) were added to 400 μl of the membrane suspensions in microfuge tubes. All assays were run in duplicate. The reaction mixtures were incubated at 25° C. for 2 hours and then the reaction was terminated by rapid filtration (Brandell 24 well cell harvester) on Whatman GF/C filters with 3×5 ml washes of cold 100 mM NaCl. The radioactivity on the filters was counted with a LKB gamma counter. […]

CCK receptor (pancreas) = target: T2, CCK receptor (pancreas) (Rattus norvegicus, UniProt P30551); assay: CCK Receptor Binding (Pancreas), inhibition of 125I-CCK-8 binding; design: species or system rat (male Sprague-Dawley); conditions: rat pancreas membranes; 50 pM 125I-CCK-8; pH 6.5, 25° C., 2 hours
T2 construct: The whole pancreas was dissected free of fat tissue and was homogenized; from tissue; host or cells: whole pancreas of male Sprague-Dawley rats, membrane homogenate
T2 sequence (P30551 1-444): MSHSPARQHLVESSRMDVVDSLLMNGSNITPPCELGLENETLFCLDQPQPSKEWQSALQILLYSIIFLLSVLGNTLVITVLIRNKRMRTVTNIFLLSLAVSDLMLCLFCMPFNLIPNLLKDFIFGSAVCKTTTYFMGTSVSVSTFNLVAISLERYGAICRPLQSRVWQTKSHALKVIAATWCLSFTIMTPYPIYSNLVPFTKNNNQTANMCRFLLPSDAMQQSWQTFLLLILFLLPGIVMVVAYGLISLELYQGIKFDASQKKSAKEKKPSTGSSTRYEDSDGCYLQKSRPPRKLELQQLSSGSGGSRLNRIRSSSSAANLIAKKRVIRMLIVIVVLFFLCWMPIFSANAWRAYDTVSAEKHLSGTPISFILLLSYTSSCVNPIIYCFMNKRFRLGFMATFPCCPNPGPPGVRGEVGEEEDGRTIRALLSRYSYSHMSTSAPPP
Experimental: CCK-8 sulphated was radiolabelled with ^125 I-Bolton Hunter reagent (2000 Ci/mmole). Receptor binding was performed according to Chang and Lotti (Proc. Natl. Acad. Sci. 83, 4923-4926, 1986) with minor modifications.
Male Sprague-Dawley rats (150-200 g) were sacrificed by decapitation. The whole pancreas was dissected free of fat tissue and was homogenized in 25 volumes of ice-cold 10 mM N-2-hydroxyethyl-piperazine-N'-2-ethane sulphonic acid (HEPES) buffer with 0.1% soya bean trypsin inhibitor (pH 7.4 at 25° C.) with a Kinematica Polytron. The homogenates were centrifuged at 47,800 g for 10 min. Pellets were resuspended in 10 volumes of binding assay buffer (20mM (HEPES)), 1 mM ethylene glycol-bis-(β-aminoethylether-N,N'-tetraacetic acid) (EGTA), 5 mM MgCl2, 150 mM NaCl, bacitracin 0.25 mg/ml, soya bean trypsin inhibitor 0.1 mg/ml, and bovine serum albumin 2 mg/ml pH 6.5 at 25° C.) using a Teflon (trademark) homogenizer, 15 strokes at 500 rpm. The homogenate was further diluted in binding assay buffer to give a final concentration of 0.5 mg original wet weight/1 ml buffer. […] The radioactivity on the filters was counted with a LKB gamma counter. […]

Row | SMILES | IC50 (CCK receptor (brain)) [nM] | IC50 (CCK receptor (pancreas)) [nM]
1 | CC(C)CN1C(=O)C(NC(=O)Nc2cccc(-c3nn[nH]n3)c2)N=C(c2ccc(=O)[nH]c2)c2ccccc21 (racemic) [Example 1, N-[3(R,S)-2,3-Dihydro-1-(2-methylpropyl)-2-oxo-5-(6-oxo-1,6-dihydropyridin-3-yl)-1H-1,4-benzodiazepin-3-yl]-N'-[3-(tetrazol-5-yl)phenyl]urea] | 19.2 | 2680
2 | CC(C)CN1C(=O)C(NC(=O)Nc2cccc(-c3nn[nH]n3)c2)N=C(c2cc[nH]c(=O)c2)c2ccccc21 (racemic) [Example 2, N-[3(R,S)-2,3-Dihydro-1-(2-methylpropyl)-2-oxo-5-(2-oxo-1,2-dihydropyridin-4-yl)-1H-1,4-benzodiazepin-3-yl]-N'-[3-(tetrazol-5-yl)phenyl]urea] | 23 | 3380
